From patent US7608611B2, “Hsp90 inhibitors, methods of making and uses therefor” (The Regents of the University of Colorado, priority 2005, dated 2009)
Where two headings read alike, the source gives them in different places.

Legend:
[1] = clinical trials, background statement; cited from earlier work
yeast Hsp90 = yeast Hsp90 (Saccharomyces cerevisiae, UniProt P02829); assay type: biochemical; settings: 17-AAG, 3 hr; for inhibition of yeast Hsp90 ATPase activity in the presence of NQO1 (17-AAGH2 formed): NADH and rhNQO1
Description: Reactions with yeast Hsp90 (top panel) were analyzed after 3 hr, while reactions with human Hsp90 (bottom panel) were analyzed after 12 hr. Phosphate concentrations were measured using the malachite green assay.
Reactions (25 μl) were started by the addition of 1 mM ATP and allowed to proceed at 37° C. for the indicated times. Reactions were then diluted with 225 μl of 100 mM Tris-HCl, pH 7.4, containing 20 mM KCl and 6 mM MgCl2 mixed thoroughly, and 80 μl was transferred to each well (96 well plate) followed by 20 μl of malachite green reagent. After 10 min 83 mM trisodium citrate was added to stabilize the color and plates were read at 650 nm.

[2] = Stability (autoxidation) of 17-AAGH2 in solution by HPLC; assay type: physicochemical
Excerpt: Results are mean, standard deviation, n=3.
During analysis HPLC buffers were continuously gassed with N2 and a copper chelator was included. […] In these studies the autoxidation of 17-AAGH2 was followed over time in an aerobic reaction.

NQO1 [3] = target: T1, NQO1 (Homo sapiens, UniProt P15559); assay: Inhibition of NQO1 activity by ES936 in MDA468/NQ16 cells; assay type: cell-based; parameters: expressed in transfected cells; host or cells: MDA468/NQ16 (human breast cancer MDA468 stably transfected with human NQO1)
Excerpt: (§1) Inhibition of rhNQO1 by ES936 was >98%.

NQO1 [4] = target: T1, NQO1; assay: Inhibition of rhNQO1 by ES936; assay type: biochemical
Excerpt: as §1

MDA468/NQ16 cells [5] = settings: MTT
Description: (§2) Cells were seeded at 2×10^3 cells per well (96 well plate) in complete medium overnight.

Hsp90 = assay: Immunoblot of Hsp90 inhibition markers (Hsp70, Raf-1, pMEK, pERK) in MDA468/NQ16 versus MDA468 cells; assay type: cell-based, human; settings: MDA468/NQ16 compared to MDA468 cells
Description: Results were confirmed in duplicate experiments. […] Results were confirmed in duplicate experiments.
To measure Hsp90 inhibition in these cells we analyzed Hsp70 induction and Raf-1 degradation as markers of Hsp90 inhibition (FIG. 5). […] Following drug treatment cells were washed in PBS then lysed by the addition of RIPA buffer (50 mM Tris-HCl, pH 7.4, 0.5% (v/v) NP40) containing 1 mini-protease tablet (protease inhibitor cocktail, Roche Indianapolis Ind.) and phosphatase inhibitors (30 mM NaF, 40 mM β-glycerol phosphate, 20 mM sodium pyrophosphate, 1 mM orthovanadate, 1 mM EGTA). Lysates were probe sonicated (2s) on ice then centrifuged to remove cellular debris. Protein concentrations were determined on supernatant. […] Membranes were blocked in 10 mM Tris-HCl, pH 8.0, 150 mM NaCl, 0.2% Tween-20 and 5% non-fat milk for a minimum of 1 hr at room temperature. Anti-Hsp70, anti-Raf-1, anti-MEK and anti-ERK antibodies were added for 1 hr at room temperature. Anti-phospho MEK and ERK antibodies were added overnight at 4° C. All primary antibodies were diluted 1:1,000 except actin (1:5,000). Horseradish peroxidase-labeled secondary antibodies (Jackson ImmunoResearch Labs, West Grove Pa.) were diluted 1:5000 and added for 30 min. Proteins were visualized using enhanced chemilumenscence detection.

MDA468 cells [6] = settings: read-out: IC50 growth inhibition; parental MDA468 cells, 4 hr exposure then 72 hr drug-free, MTT
Description: as §2

MDA468 cell sonicates = assay: Reduction of 17-AAG by MDA468 cell sonicates, HPLC; assay type: in vitro ADME, human
[7] = tested on: MDA468/NQ16 cell sonicates; settings: NADH or NADPH
Description: The human breast cancer cell line MDA468 and the NQO1 stably transfected cell line MDA468/NQ16 (Clin. Cancer Res. 2004; 10:3147-55) were grown in RPMI-1640 containing 10% (v/v) fetal bovine serum and 1% (v/v) penicillin, streptomycin and glutamine. […] Protein concentrations were determined by the method of Lowry. […] The parental MDA468 cell lines is NQO1 null (<10 nmoles DCPIP/min/mg) due to homozygous expression of the NQO1*2 polymorphism. The stable transfection of the MDA468 cell line with human NQO1 generated the MDA468/NQ16 cell line, which has high NQO1 activity (>1,800 nmoles DCPIP/min/mg).

NQO1 [8] = target: T1, NQO1; assay: Reduction of 17-AAG by rhNQO1 and NADH, HPLC analysis; assay type: in vitro ADME
Description: HPLC conditions: Buffer A, 50 mM ammonium acetate, pH 4 containing 10 μM D(−) penicillamine; buffer B, acetonitrile (100%). Both buffers were continuously bubbled with N2. Gradient, 20% B to 85% B over 20 min, then 85% for 4 min (flow rate of 1 ml/min). The sample injection volume was 50 μl. Liquid Chromatography-Mass Spectrometry was performed using positive ion electrospray ionization (ESI) and the mass spectra were obtained with a PE Sciex API-3000 triple quadrupole mass spectrometer (Foster City, Calif.) with a turbo ionspray source interfaced to a PE Sciex 200 HPLC system. Samples were chromatographed on a Luna C18 reverse-phase column (5 μm, 50×2 mm (Phenomenex) using a gradient elution consisting of a 2 min initial hold at 20% B followed by an increase to 80% B over 20 min at a flow rate of 0.2 ml/min and a sample injection volume of 20 μl. Buffer A, 10 mM ammonium acetate containing 0.1% (v/v) acetic acid, pH 4.4: buffer B, 10 mM ammonium acetate in acetonitrile containing 0.1% (v/v) acetic acid. The mass spectrometer settings were: turbo ionspray temperature of 250° C., spray needle voltage at 4500 V, declustering potential (DP) at 35 V and focus plate (FP) at 125 V. Mass spectra were continuously recorded from 150 to 1000 amu every 3 s during the chromatographic analysis.
Inhibition of rhNQO1 by ES936 was >98%. […]

MDA468 cells [9] = assay: Metabolism of 17-AAG in intact MDA468 cells, HPLC; assay type: cell-based, human; settings: 5 μM 17-AAG, 4 hr
MDA468/NQ16 cells [10] = tested on: MDA468/NQ16 cells
[11] = MDA468/NQ16 cells, 5 μM 17-AAG, 4 hr

T1 sequence (P15559 whole entry): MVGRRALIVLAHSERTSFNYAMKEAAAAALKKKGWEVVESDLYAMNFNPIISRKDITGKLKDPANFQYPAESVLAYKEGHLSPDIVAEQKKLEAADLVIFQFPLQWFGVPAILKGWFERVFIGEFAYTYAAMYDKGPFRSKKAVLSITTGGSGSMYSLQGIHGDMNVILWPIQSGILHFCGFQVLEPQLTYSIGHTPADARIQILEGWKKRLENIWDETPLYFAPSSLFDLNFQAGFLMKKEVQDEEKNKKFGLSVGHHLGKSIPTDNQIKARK
Chain of yeast Hsp90 (P02829 whole entry): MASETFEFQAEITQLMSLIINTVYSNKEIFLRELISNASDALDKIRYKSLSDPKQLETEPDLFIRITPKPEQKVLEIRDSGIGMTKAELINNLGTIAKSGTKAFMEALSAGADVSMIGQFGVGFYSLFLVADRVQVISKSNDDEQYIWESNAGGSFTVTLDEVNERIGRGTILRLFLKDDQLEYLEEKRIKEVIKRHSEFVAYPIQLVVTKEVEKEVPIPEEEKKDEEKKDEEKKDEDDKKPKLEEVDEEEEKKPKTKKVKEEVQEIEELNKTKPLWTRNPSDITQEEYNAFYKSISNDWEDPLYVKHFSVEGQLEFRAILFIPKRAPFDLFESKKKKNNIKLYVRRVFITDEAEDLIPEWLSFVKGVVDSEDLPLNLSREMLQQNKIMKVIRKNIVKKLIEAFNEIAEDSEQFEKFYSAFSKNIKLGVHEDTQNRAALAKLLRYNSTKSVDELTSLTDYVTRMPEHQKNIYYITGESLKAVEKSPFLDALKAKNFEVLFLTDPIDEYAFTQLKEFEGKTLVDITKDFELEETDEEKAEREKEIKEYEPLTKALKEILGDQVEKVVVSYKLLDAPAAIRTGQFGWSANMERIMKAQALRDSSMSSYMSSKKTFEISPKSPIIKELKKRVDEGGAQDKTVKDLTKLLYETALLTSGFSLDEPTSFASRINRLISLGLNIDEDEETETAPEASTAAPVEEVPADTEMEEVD

## CO[C@H]1/C=C\C=C(/C)C(=O)NC2=CC(=O)C(NCCN(C)C)=C(C[C@@H](C)C[C@H](OC)[C@H](O)[C@@H](C)/C=C(\C)[C@@H]1OC(N)=O)C2=O [17-DMAG, 17-demethoxy-17-[[2-(dimethylamino)ethyl]amino]-geldanamycin]
[1]
  hepatotoxicity / liver toxicity: do not induce liver toxicity

## C=CCNc1c(O)cc2c(O)c1CC(C)CC(OC)C(O)C(C)C=C(C)C(OC(N)=O)C(OC)C=CC=C(C)C(=O)N2 (stereo not shown) [17-AAGH2, 17-Demethoxy-18,21-dihydroxy-17-(2-propenylamino)-geldanamycin]
Yeast Hsp90
  inhibition of yeast Hsp90 ATPase activity in the presence of NQO1 (17-AAGH2 formed): the active Hsp90 inhibitor
[2]; aerobic, 50 mM potassium phosphate buffer pH 7.4, 27° C.
  autoxidation of the hydroquinone back to the quinone over time: slow rate of autoxidation back to 17-AAG over a period of hours
[2]; inclusion of copper (CuSO4)
  effect of copper on 17-AAGH2 oxidation: could facilitate 17-AAGH2 oxidation

## COC1=CC(=O)c2c(c(COc3ccc([N+](=O)[O-])cc3)c(C)n2C)C1=O [ES936, 5-methoxy-1,2-dimethyl-3-[(4-nitrophenoxy)methyl]indole-4,7-dione]
NQO1 [3]; single dose 100 nM ES936, after 4 hr, MDA468/NQ16 cells
  inhibition at 0.1 µM: > 96%
NQO1 [3]; single dose of 100 nM
  toxicity of ES936 to cells: nontoxic
NQO1 [4]
  Inhibition of rhNQO1: > 98%

## C=CCNC1=C2C[C@@H](C)C[C@H](OC)[C@H](O)[C@@H](C)/C=C(\C)[C@H](OC(N)=O)[C@@H](OC)/C=C\C=C(/C)C(=O)NC(=CC1=O)C2=O [17-AAG, 17-demethoxy-17-(2-propenylamino)-geldanamycin]
MDA468/NQ16 cells [5]; read-out: IC50 growth inhibition after pretreatment with ES936, pretreatment with 100 nM ES936 for 30 min, 4 hr exposure then 72 hr
  IC50: 7.67 ± 1.36 µM
MDA468/NQ16 cells [5]; read-out: IC50 growth inhibition, MDA468/NQ16 cells, 4 hr exposure then 72 hr drug-free
  IC50: 0.86 ± 0.16 µM
Hsp90; 17-AAG 0.5-1 μM, 8 hr
  Hsp70 induction: greater Hsp70 induction
  Raf-1 degradation: increased Raf-1 degradation
Hsp90; serum starved 24 hr, 17-AAG 8 hr
  MEK and ERK phosphorylation: decreased levels of both MEK and ERK phosphorylation
Yeast Hsp90
  inhibition of yeast Hsp90 ATPase activity in the presence of NQO1 (17-AAGH2 formed): substantial decrease in ATPase activity
Yeast Hsp90; NADH
  inhibition of yeast Hsp90 ATPase activity in the absence of NQO1: No inhibition
MDA468 cells [6]
  IC50: 10.1 ± 1.07 µM
MDA468 cell sonicates
  generation of 17-AAGH2 by cell sonicates: No 17-AAGH2 could be detected
[7]
  generation of 17-AAGH2 by cell sonicates: readily generated 17-AAGH2
NQO1 [8]
  17-AAG detected in the form of the hydroquinone after reduction by NQO1: 90%
MDA468 cells [9]
  Cell viability (trypan blue exclusion assay): > 90%
  formation of 17-AAGH2 in intact cells: No 17-AAGH2 could be detected
MDA468/NQ16 cells [10]; [11]
  Cell viability (trypan blue exclusion assay): > 90%
  formation of 17-AAGH2 in intact cells: 17-AAGH2 could be generated
MDA468/NQ16 cells [10]; MDA468/NQ16 compared to ES936-treated or parental MDA468 cells
  accumulation of total drug (quinone plus hydroquinone) in cells: accumulated more total drug
[1]
  hepatotoxicity / liver toxicity: do not induce liver toxicity

## COC1=C2C[C@@H](C)C[C@H](OC)[C@H](O)[C@@H](C)/C=C(\C)[C@H](OC(N)=O)[C@@H](OC)/C=C\C=C(/C)C(=O)NC(=CC1=O)C2=O [GDM, geldanamycin]
[1]
  hepatotoxicity / liver toxicity: unacceptable hepatotoxicity
